Assay results reported in US20250122174A1 (Shenzhen Yuanli Shenwan Innovative Medicine Co., Ltd., priority 2022, published 2025).
pIC50: −log10 of the molar value.

These compounds were tested against HPK1 (Homo sapiens (Human), UniProt Q92918) (assay: HPK1 Inhibition Assay (ADP-Glo kinase assay)). Details: ATP 10 μM.
Format: biochemical
Procedure, shortened: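 ADP-Glo luminescence read-out after 1 h room-temperature kinase reaction with 10 μM ATP and 0.1 μg/ml MBP. Recombinant human HPK1 at 7.5 ng/μl; buffer 40 mM Tris pH 7.5, 20 mM MgCl2. Compounds serially diluted 5-fold over 10 points from 10 mM DMSO stock.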

HPK1, sequence (Q92918 1-346 limits assumed): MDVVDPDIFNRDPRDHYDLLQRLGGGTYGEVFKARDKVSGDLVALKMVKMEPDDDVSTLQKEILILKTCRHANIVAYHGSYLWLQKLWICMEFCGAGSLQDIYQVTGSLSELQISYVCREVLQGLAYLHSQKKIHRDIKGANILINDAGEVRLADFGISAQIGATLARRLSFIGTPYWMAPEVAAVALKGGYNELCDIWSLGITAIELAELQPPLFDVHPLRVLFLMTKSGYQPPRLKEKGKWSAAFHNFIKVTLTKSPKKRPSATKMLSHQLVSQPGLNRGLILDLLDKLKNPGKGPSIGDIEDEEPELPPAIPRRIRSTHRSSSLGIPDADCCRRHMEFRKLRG

SMILES | pIC50
CC[C@@]1(N)CCN(c2c(NC(=O)c3ccc(=O)n(-c4c(F)cccc4F)n3)ccc3c2nc(C(C)C)n3C)C1 [Example 121, (R)-N-(4-(3-amino-3-ethylpyrrolidin-1-yl)-2-isopropyl-1-methyl-1H-benzo[d]imidazol-5-yl)-1-(2,6-difluorophenyl)-6-oxo-1,6-dihydropyridazine-3-carboxamide] | > 7.00
CC(C)n1ncc2c(N3C[C@H](N)C4(CC4)C3)c(NC(=O)c3ccc(=O)n(-c4c(F)cccc4F)n3)ccc21 [Example 182, (R)-N-(4-(7-amino-5-azaspiro[2.4]heptan-5-yl)-1-isopropyl-1H-indazol-5-yl)-1-(2,6-difluorophenyl)-6-oxo-1,6-dihydropyridazine-3-carboxamide] | > 7.00
Cn1c(-c2ccncc2F)nc2c(N3CC[C@H](N)C3)c(NC(=O)c3ccnn(-c4c(F)cccc4F)c3=O)ccc21 [Example 42, N-{4-[(35)-3-aminopyrrolidin-1-yl]-2-(3-fluoropyridin-4-yl)-1-methyl-1,3-benzodiazol-5-yl}-2-(2,6-difluorophenyl)-3-oxopyridazine-4-carboxamide] | > 7.00
CC[C@H](C)n1ncc2c(N3C[C@@H](C)[C@@H](N)C3)c(NC(=O)c3ccc(=O)n(-c4c(F)cccc4F)n3)ccc21 [Example 256, N-(4-((3R,4R)-3-amino-4-methylpyrrolidin-1-yl)-1-((S)-sec-butyl)-1H-indazol-5-yl)-1-(2,6-difluorophenyl)-6-oxo-1,6-dihydropyridazine-3-carboxamide] | > 7.00
Cn1c(C2CC2)nc2c(N3CC[C@@H](N)C3)c(NC(=O)c3ccc(=O)n(-c4c(F)cccc4F)n3)ccc21 [Example 160, (R)-N-(4-(3-aminopyrrolidin-1-yl)-2-cyclopropyl-1-methyl-1H-benzo[d]imidazol-5-yl)-1-(2,6-difluorophenyl)-6-oxo-1,6-dihydropyridazine-3-carboxamide] | > 7.00
N#Cc1ccncc1-c1ccc(NC(=O)c2ccc(=O)n(-c3c(F)cccc3F)n2)c(N2CCC(N)CC2)c1 [Example 346, N-(2-(4-aminopiperidin-1-yl)-4-(4-cyanopyridin-3-yl)phenyl)-1-(2,6-difluorophenyl)-6-oxo-1,6-dihydropyridazine-3-carboxamide] | > 7.00
C[C@@H]1CN(c2c(NC(=O)c3ccc(=O)n(-c4c(F)cccc4F)n3)ccc3nn(C4(C(F)(F)F)CC4)cc23)C[C@@H]1N [Example 315, N-(4-((3R,4R)-3-amino-4-methylpyrrolidin-1-yl)-2-(1-(trifluoromethyl)cyclopropyl)-2H-indazol-5-yl)-1-(2,6-difluorophenyl)-6-oxo-1,6-dihydropyridazine-3-carboxamide] | > 7.00
N[C@H]1CN(c2c(NC(=O)c3ccc(=O)n(-c4c(F)cccc4F)n3)ccc3c2cnn3C2CC2)CC12CC2 [Example 300, (R)-N-(4-(7-amino-5-azaspiro[2.4]heptan-5-yl)-1-cyclopropyl-1H-indazol-5-yl)-1-(2,6-difluorophenyl)-6-oxo-1,6-dihydropyridazine-3-carboxamide] | > 7.00
CC(C)c1nc2c(N3CC[C@](N)(CO)C3)c(NC(=O)c3ccc(=O)n(-c4c(F)cccc4F)n3)ccc2n1C (single isomer, unassigned) [Example 124] | > 7.00
C[C@@H]1CN(c2c(NC(=O)c3ccc(=O)n(-c4c(F)cccc4F)n3)ccc3c2cnn3C(C)(C)C)C[C@@H]1N [Example 303, N-(4-((3R,4R)-3-amino-4-methylpyrrolidin-1-yl)-1-(tert-butyl)-1H-indazol-5-yl)-1-(2,6-difluorophenyl)-6-oxo-1,6-dihydropyridazine-3-carboxamide] | > 7.00
Cc1nc2c(N3CCC(N)CC3)c(NC(=O)c3ccc(=O)n(-c4c(F)cccc4F)n3)ccc2n1C [Example 74, N-(4-(4-aminopiperidin-1-yl)-1,2-dimethyl-1H-benzo[d] 98 midazole-5-yl)-1-(2,6-difluorophenyl)-6-oxo-1,6-dihydropyridazine-3-carboxamide] | > 7.00
CC(C)n1cc2c(N3CC[C@@](C)(N)C3)c(NC(=O)c3ccc(=O)n(-c4c(F)cccc4F)n3)ccc2n1 [Example 220, (R)—N-(4-(3-amino-3-methylpyrrolidin-1-yl)-2-isopropyl-2H-indazol-5-yl)-1-(2,6-difluorophenyl)-6-oxo-1,6-dihydropyridazine-3-carboxamide] | > 7.00
Cc1nc2c(N3C[C@H](N)C4(CC4)C3)c(NC(=O)c3ccc(=O)n(-c4c(F)cccc4F)n3)ccc2n1C [Example 91, (R)-N-(4-(7-amino-5-azaspiro[2.4]heptan-5-yl)-1,2-dimethyl-1H-benzo[d]imidazol-5-yl)-1-(2,6-difluorophenyl)-6-oxo-1,6-dihydropyridazine-3-carboxamide] | > 7.00
CC(C)n1ncc2c(N3C[C@H](C)[C@@H](N)C3)c(NC(=O)c3ccc(=O)n(-c4c(F)cccc4F)n3)ccc21 [Example 209, N-(4-((3R,4S)-3-amino-4-methylpyrrolidin-1-yl)-1-isopropyl-1H-indazol-5-yl)-1-(2,6-difluorophenyl)-6-oxo-1,6-dihydropyridazine-3-carboxamide] | > 7.00
C[C@H]1CN(c2c(NC(=O)c3ccc(=O)n(-c4c(F)cccc4F)n3)ccc3nn([C@@H]4CCOC4)cc23)C[C@@H]1N [Example 326, N-(4-((3R,4S)-3-amino-4-methylpyrrolidin-1-yl)-2-((R)-tetrahydrofuran-3-yl)-2H-indazol-5-yl)-1-(2,6-difluorophenyl)-6-oxo-1,6-dihydropyridazine-3-carboxamide] | > 7.00

Now from value to compound:

pIC50 | SMILES
> 7.00 | [2H]C([2H])([2H])C(n1cc2c(N3C[C@H](N)C4(CC4)C3)c(NC(=O)c3ccc(=O)n(-c4c(F)cccc4F)n3)ccc2n1)C([2H])([2H])[2H] [Example 339]
> 7.00 | N[C@H]1CN(c2c(NC(=O)c3ccc(=O)n(-c4c(F)cccc4F)n3)ccc3c2cnn3[C@H]2CCOC2)CC12CC2 [Example 249, 1-(2,6-difluorophenyl)-N-{4-[(7R)-7-amino-5-azaspiro[2.4]heptan-5-yl]-1-[(3S)-tetrahydro-3-furyl]indazol-5-yl}-6-oxo-1,2-diazine-3-carboxamide]
> 7.00 | CC[C@@H]1CN(c2c(NC(=O)c3ccc(=O)n(-c4c(F)cccc4F)n3)ccc3c2cnn3C(C)C)C[C@@H]1N (single isomer, unassigned) [Example 196]
> 7.00 | CC(C)c1nc2c(N3CC(F)(F)C[C@H]3CN)c(NC(=O)c3ccc(=O)n(-c4c(F)cccc4F)n3)cc(F)c2n1C [Example 144, (S)-N-(4-(2-(aminomethyl)-4,4-difluoropyrrolidin-1-yl)-7-fluoro-2-isopropyl-1-methyl-1H-benzo[d]imidazol-5-yl)-1-(2,6-difluorophenyl)-6-oxo-1,6-dihydropyridazine-3-carboxamide]
> 7.00 | N#Cc1ccncc1-c1ccc(NC(=O)c2ccc(=O)n(-c3c(F)cccc3F)n2)c(N2C[C@H](N)C[C@H]2CO)c1 [Example 351, N-(2-((2S,4R)-4-amino-2-(hydroxymethyl)pyrrolidin-1-yl)-4-(4-cyanopyridin-3-yl)phenyl)-1-(2,6-difluorophenyl)-6-oxo-1,6-dihydropyridazine-3-carboxamide]
> 7.00 | CC(C)n1ncc2c(N3C[C@@H](C)[C@@H](NCCO)C3)c(NC(=O)c3ccc(=O)n(-c4c(F)cccc4F)n3)ccc21 [Example 214, 1-(2,6-difluorophenyl)-N-(4-((3R,4R)-3-((2-hydroxyethyl)amino)-4-methylpyrrolidin-1-yl)-1-isopropyl-1H-indazol-5-yl)-6-oxo-1,6-dihydropyridazine-3-carboxamide]
> 7.00 | C[C@@H]1CN(c2c(NC(=O)c3ccc(=O)n(-c4c(F)cccc4F)n3)ccc3nn(C(C)(C)C)cc23)C[C@@H]1N [Example 234, N-[4-[(3R,4R)-3-amino-4-methyl-pyrrolidin-1-yl]-2-tert-butyl-indazol-5-yl]-1-(2,6-difluorophenyl)-6-oxo-pyridazine-3-carboxamide]
